Test results from US8933039B2 (NPS Pharmaceuticals, Inc., priority 1995, dated 2015).
Non-standard residues stand in square brackets, D forms with d. Residues, ends and D or L forms follow the SMILES beside them. Tle = CC(C)(C)[C@H](N)C(=O)O; Aib = CC(C)(N)C(=O)O

Tests used:
[1] = test system: CD1 mice; assay: Intestinotrophic activity assessment: small bowel weight in mice; format: in vivo; settings: for % Increase in small bowel weight: CD1 mice, 2.5 μg peptide s.c. b.i.d. in PBS, sacrificed 10 or 14 days, relative to vehicle only; for % Activity (small bowel inducing activity relative to native rat GLP-2(1-33) = 100%): mice, as Example 4; for intestinotrophic activity compared with the naturally occurring molecule / rGLP-2 (in words): comment on Table 1, CD1 mice
Method in brief: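 Female CD1 mice, 6 weeks old (n=3-4/group), given 2.5 μg peptide s.c. b.i.d. in PBS; sacrificed 10 or 14 days later after ≥20 h fast. Small bowel (pylorus to cecum) weighed; percent change versus vehicle mice, also expressed relative to rat GLP-2(1-33) set as 100%.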

[2] = test system: Sprague-Dawley rats; assay: Small bowel weight in normal Sprague-Dawley rats; format: in vivo; settings: gelatin formulation, vs vehicle
Protocol: (§1) The following experiments were conducted to confirm that the increase in bowel weight seen in experimental animals treated with DPP-IV resistant analogs of GLP-2, compared with animals treated with wild-type GLP-2, was attributable in part to the DPP-IV resistant nature of the molecules. This experiment took advantage of the availability of a DPP-IV deficient rat strain, Fisher 334 DPP-IV-rats. The effect of rGLP-2 injections on small bowel weight in the Fisher DPP-IV deficient rats was compared to that in normal Sprague-Dawley rats.
(§2) In the following experiments the Sprague-Dawley rats were injected s.c. twice daily with rGLP-2 in the Gelatin formulation. The Fisher rats were injected s.c. twice daily with GLP-2 peptides (both rGLP-2, and rGLP-2 analogs) in PBS.

[3] = test system: Fisher 334 DPP-IV-rats; assay: Small bowel weight in DPP-IV deficient Fisher rats; format: in vivo; settings: 20 μg b.i.d. s.c. in PBS, vs vehicle
Protocol: as §1, §2

[4] = target: T1, DPP-IV (Homo sapiens, UniProt P27487); assay: Assay for resistance to dipeptidyl peptidase IV (RP-HPLC of cleavage product); settings: human, isolated human placental DPP-IV (dipeptidyl peptidase IV)
T1 sequence (P27487 whole entry): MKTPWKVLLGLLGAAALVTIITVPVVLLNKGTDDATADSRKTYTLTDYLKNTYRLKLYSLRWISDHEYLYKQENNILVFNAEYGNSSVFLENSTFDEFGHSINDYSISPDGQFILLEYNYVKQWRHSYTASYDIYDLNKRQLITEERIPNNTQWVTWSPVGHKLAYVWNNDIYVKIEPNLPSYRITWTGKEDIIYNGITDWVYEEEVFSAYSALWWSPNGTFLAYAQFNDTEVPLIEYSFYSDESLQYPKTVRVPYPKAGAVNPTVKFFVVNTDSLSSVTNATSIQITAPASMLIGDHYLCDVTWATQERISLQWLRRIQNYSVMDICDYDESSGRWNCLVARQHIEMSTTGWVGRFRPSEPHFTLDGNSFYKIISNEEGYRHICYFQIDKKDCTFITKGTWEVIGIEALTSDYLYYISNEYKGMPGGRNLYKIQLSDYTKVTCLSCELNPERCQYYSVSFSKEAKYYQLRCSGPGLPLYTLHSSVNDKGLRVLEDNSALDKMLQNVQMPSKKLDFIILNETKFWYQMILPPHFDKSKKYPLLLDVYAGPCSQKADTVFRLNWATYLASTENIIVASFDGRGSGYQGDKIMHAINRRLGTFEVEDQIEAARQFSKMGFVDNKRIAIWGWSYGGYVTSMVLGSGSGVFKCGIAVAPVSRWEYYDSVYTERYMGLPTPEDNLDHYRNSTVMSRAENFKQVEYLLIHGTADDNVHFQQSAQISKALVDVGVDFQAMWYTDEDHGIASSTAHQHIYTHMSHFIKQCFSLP
Protocol: (§3) The mixture was incubated at 37° C. in a circulating water bath for 24 hours. The incubation was quenched by the addition of 50 μl of a solution of diprotin A prepared at a concentration of 4 mg/ml in PBS. Each peptide was tested in duplicate.
(§4) Each sample was analyzed by reverse-phase (RP) HPLC as follows: 90 μl of the quenched incubation mixture was injected onto a Rainin Dynamax 300 Å, C18, 5 micron, 4.6×250 millimeter column. The samples were eluted with 0.1% trifluoroacetic acid (TFA) in water modified with 0.1% acetonitrile using a linear gradient and a flow rate of 1 ml per minute. Sample components were detected at 214 nanometers (nm). The extent of cleavage was measured by relative integration of the peak corresponding to the cleavage product compared to that of the remaining undigested parent peptide.

[5] = target: human placental DPP-IV (Homo sapiens, UniProt P27487); assay: as above; settings: human placental DPP-IV 0.125 mU, peptide 0.2 mg/ml, PBS pH 7.4, 37° C.
Chain of human placental DPP-IV (P27487 whole entry): as above
Protocol: as §3, §4

[6] = target: T1, DPP-IV; assay: in vitro; settings: isolated enzyme dpp iv, pH 7.4, % Cleaved by DPP-IV
Protocol: as §3, §4

[7] = test system: Fisher 344 wild-type rats; assay: Small bowel weight in Fisher 344 wild-type rats; format: in vivo; settings: 20 μg b.i.d. s.c. in PBS, over vehicle control
Protocol: as §2

[8] = test system: dipeptidyl peptidase IV (DPP-IV); assay: human placental DPP-IV (Calbiochem), 0.125 mU, added to test peptide in PBS at pH 7.4; settings: 37° C., up to 24 hours
[9] = pH 7.4, % Cleaved by DPP-IV, as Example 3: human placental DPP-IV, 37° C., PBS pH 7.4

Molecule | not cleaved [8] | % Increase in small bowel weight [1] | % Activity (small bowel inducing activity relative to native rat GLP-2(1-33) = 100%) [1] | also measured
H-HADGSFSDEMNTILDNLATRDFINWLIQTKITD-OH [ratGLP-2(1-33), reference compound] |  | 45% | 100% | % change in small bowel weight ([2]; 2.5 μg b.i.d. s.c.): no % change; % change in small bowel weight ([2]; 25 μg b.i.d. s.c.): no % change; increase in % change in small bowel weight [3]: 40-50%; metabolised at 24 h, 0.19 mg/ml [4, 9]: 58%; metabolised at 24 h, 0.19 mg/ml ([4]; pH 7.4, cleaved by DPP-IV after the 24 hour incubation, human placental DPP-IV 0.125 mU, peptide 0.2 mg/ml, PBS pH 7.4, 37° C.): 22%
CC[C@H](C)[C@H](NC(=O)[C@H](Cc1ccccc1)NC(=O)[C@H](CC(=O)O)NC(=O)[C@H](CCCNC(=N)N)NC(=O)[C@@H](NC(=O)[C@H](C)NC(=O)[C@H](CC(C)C)NC(=O)[C@H](CC(N)=O)NC(=O)[C@H](CC(=O)O)NC(=O)[C@H](CC(C)C)NC(=O)[C@@H](NC(=O)[C@@H](NC(=O)[C@H](CC(N)=O)NC(=O)[C@H](CCSC)NC(=O)[C@H](CCC(=O)O)NC(=O)[C@H](CC(=O)O)NC(=O)[C@H](CO)NC(=O)[C@H](Cc1ccccc1)NC(=O)[C@H](CO)NC(=O)CNC(=O)[C@H](CC(=O)O)NC(=O)[C@@H](C)NC(=O)[C@@H](N)Cc1c[nH]cn1)[C@@H](C)O)[C@@H](C)CC)[C@@H](C)O)C(=O)N[C@@H](CC(N)=O)C(=O)N[C@@H](Cc1c[nH]c2ccccc12)C(=O)N[C@@H](CC(C)C)C(=O)N[C@H](C(=O)N[C@@H](CCC(N)=O)C(=O)N[C@H](C(=O)N[C@@H](CCCCN)C(=O)N[C@H](C(=O)N[C@H](C(=O)N[C@@H](CC(=O)O)C(=O)O)[C@@H](C)O)[C@@H](C)CC)[C@@H](C)O)[C@@H](C)CC [[DAla2]ratGLP-2(1-33)] (H-H[dA]DGSFSDEMNTILDNLATRDFINWLIQTKITD-OH) |  | 86% | 210% | metabolised at 24 h, 0.19 mg/ml [4, 9]: 0%; cleaved by DPP-IV after the 24 hour incubation [5]: No cleavage products were detected
CC[C@H](C)[C@H](NC(=O)[C@H](Cc1ccccc1)NC(=O)[C@H](CC(=O)O)NC(=O)[C@H](CCCNC(=N)N)NC(=O)[C@H](C)NC(=O)[C@H](C)NC(=O)[C@H](CC(C)C)NC(=O)[C@H](CC(N)=O)NC(=O)[C@H](CC(=O)O)NC(=O)[C@H](CC(C)C)NC(=O)[C@@H](NC(=O)[C@@H](NC(=O)[C@H](CC(N)=O)NC(=O)[C@H](CCSC)NC(=O)[C@H](CCC(=O)O)NC(=O)[C@H](CC(=O)O)NC(=O)[C@H](CO)NC(=O)[C@H](Cc1ccccc1)NC(=O)[C@H](CO)NC(=O)CNC(=O)[C@H](CC(=O)O)NC(=O)CNC(=O)[C@@H](N)Cc1c[nH]cn1)[C@@H](C)O)[C@@H](C)CC)C(=O)N[C@@H](CC(N)=O)C(=O)N[C@@H](Cc1c[nH]c2ccccc12)C(=O)N[C@@H](CC(C)C)C(=O)N[C@H](C(=O)N[C@@H](CCC(N)=O)C(=O)N[C@H](C(=O)N[C@@H](CCCCN)C(=O)N[C@H](C(=O)N[C@H](C(=O)N[C@@H](CC(=O)O)C(=O)O)[C@@H](C)O)[C@@H](C)CC)[C@@H](C)O)[C@@H](C)CC [[Gly2]hGLP-2(1-33)] |  | 59% | 300% | intestinotrophic activity compared with the naturally occurring molecule / rGLP-2 (in words) [1]: substantially increased; metabolised at 24 h, 0.19 mg/ml [6]: 0%
H-HGDGSFSDEMNTILDNLATRDFINWLIQTKITD-OH [[Gly2]ratGLP-2(1-33)] |  | 70% | 196% | intestinotrophic activity compared with the naturally occurring molecule / rGLP-2 (in words) [1]: greatly enhanced; increase in % change in small bowel weight [3]: 50-60%; increase in small bowel weight [7]: 75-85%; metabolised at 24 h, 0.19 mg/ml [4, 9]: 0%; cleaved by DPP-IV after the 24 hour incubation [5]: No cleavage products were detected
[Aib2]hGLP-2(1-33) (H-H[Aib]DGSFSDEMNTILDNLAARDFINWLIQTKITD-OH; SMILES CC[C@H](C)[C@H](NC(=O)[C@H](Cc1ccccc1)NC(=O)[C@H](CC(=O)O)NC(=O)[C@H](CCCNC(=N)N)NC(=O)[C@H](C)NC(=O)[C@H](C)NC(=O)[C@H](CC(C)C)NC(=O)[C@H](CC(N)=O)NC(=O)[C@H](CC(=O)O)NC(=O)[C@H](CC(C)C)NC(=O)[C@@H](NC(=O)[C@@H](NC(=O)[C@H](CC(N)=O)NC(=O)[C@H](CCSC)NC(=O)[C@H](CCC(=O)O)NC(=O)[C@H](CC(=O)O)NC(=O)[C@H](CO)NC(=O)[C@H](Cc1ccccc1)NC(=O)[C@H](CO)NC(=O)CNC(=O)[C@H](CC(=O)O)NC(=O)C(C)(C)NC(=O)[C@@H](N)Cc1c[nH]cn1)[C@@H](C)O)[C@@H](C)CC)C(=O)N[C@@H](CC(N)=O)C(=O)N[C@@H](Cc1c[nH]c2ccccc12)C(=O)N[C@@H](CC(C)C)C(=O)N[C@H](C(=O)N[C@@H](CCC(N)=O)C(=O)N[C@H](C(=O)N[C@@H](CCCCN)C(=O)N[C@H](C(=O)N[C@H](C(=O)N[C@@H](CC(=O)O)C(=O)O)[C@@H](C)O)[C@@H](C)CC)[C@@H](C)O)[C@@H](C)CC) | 0% cleaved by DPP-IV |  |  | 
[Thr2]hGLP-2(1-33) (H-HTDGSFSDEMNTILDNLAARDFINWLIQTKITD-OH) | 0% cleaved by DPP-IV |  |  | 
[Gly2, Tyr34]hGLP-2(1-34) | 0% cleaved by DPP-IV |  |  | 

Further lines, with some results ahead:

not cleaved [8] | Molecule | % Increase in small bowel weight [1] | % Activity (small bowel inducing activity relative to native rat GLP-2(1-33) = 100%) [1] | also measured
0% cleaved by DPP-IV | [D-Ala2]hGLP-2(1-33) |  |  | 
0% cleaved by DPP-IV | [tBuGly2]hGLP-2 (H-H[Tle]DGSFSDEMNTILDNLAARDFINWLIQTKITD-OH; SMILES CC[C@H](C)[C@H](NC(=O)[C@H](Cc1ccccc1)NC(=O)[C@H](CC(=O)O)NC(=O)[C@H](CCCNC(=N)N)NC(=O)[C@H](C)NC(=O)[C@H](C)NC(=O)[C@H](CC(C)C)NC(=O)[C@H](CC(N)=O)NC(=O)[C@H](CC(=O)O)NC(=O)[C@H](CC(C)C)NC(=O)[C@@H](NC(=O)[C@@H](NC(=O)[C@H](CC(N)=O)NC(=O)[C@H](CCSC)NC(=O)[C@H](CCC(=O)O)NC(=O)[C@H](CC(=O)O)NC(=O)[C@H](CO)NC(=O)[C@H](Cc1ccccc1)NC(=O)[C@H](CO)NC(=O)CNC(=O)[C@H](CC(=O)O)NC(=O)[C@@H](NC(=O)[C@@H](N)Cc1c[nH]cn1)C(C)(C)C)[C@@H](C)O)[C@@H](C)CC)C(=O)N[C@@H](CC(N)=O)C(=O)N[C@@H](Cc1c[nH]c2ccccc12)C(=O)N[C@@H](CC(C)C)C(=O)N[C@H](C(=O)N[C@@H](CCC(N)=O)C(=O)N[C@H](C(=O)N[C@@H](CCCCN)C(=O)N[C@H](C(=O)N[C@H](C(=O)N[C@@H](CC(=O)O)C(=O)O)[C@@H](C)O)[C@@H](C)CC)[C@@H](C)O)[C@@H](C)CC) |  |  | 
0% cleaved by DPP-IV | [Lys2]hGLP-2(1-33) (H-HKDGSFSDEMNTILDNLAARDFINWLIQTKITD-OH) |  |  | 
0% cleaved by DPP-IV | [Gly2,Ala24]hGLP-2(1-33) (H-HGDGSFSDEMNTILDNLAARDFIAWLIQTKITD-OH) |  |  | 
